The conditions of series [1]: cited from earlier work; for degradation degree: micronised steroids, radiation doses 4.5 and 15 Mrad; for stability after gamma-irradiation: 60Co, 1 to 4 Mrad.
A short description of series [2]: Particle size of micronised BDP powder by Malvern analysis. The series is classed as physicochemical. How it is done: (§1) About 600 g of micronised BDP was stored in a 20 1 polythene container after having replaced air by nitrogen, the container was in turn sealed in two Polikem bag. The product was subjected to gamma-irradiation at 2 to 9 KGy. After the exposure, the BDP purity and the amount of related substances were determined by HPLC. On the batch subjected to 2 kGy dose, the particle size as well as the loss of weight were also determined by Malvern analysis and TGA respectively, in comparison to the non-irradiated product.

Series [3] can be described thus: Loss of weight by TGA of micronised BDP after gamma-irradiation. The series is classed as physicochemical. The method, then:
as §1

Series [4] can be described thus: HPLC purity and related substances of micronised BDP after gamma-irradiation. Format: physicochemical. How it is done:
as §1

Like-named read-outs stand apart in the source and are kept apart here.

`C[C@]12C=CC(=O)C=C1CC[C@@H]1[C@@H]2[C@@H](O)C[C@@]2(C)[C@H]1CC[C@]2(O)C(=O)CO` [prednisolone]: the degradation degree entry in series [1] was “about 2.4%”.

For the molecule `CCC(=O)OCC(=O)[C@@]1(OC(=O)CC)[C@@H](C)C[C@H]2[C@@H]3CCC4=CC(=O)C=C[C@]4(C)[C@@]3(Cl)[C@@H](O)C[C@@]21C` [Non-irr. BDP, beclomethasone dipropionate], in series [2] (non-irradiated powder), the “Particle size distribution (μm, Malvern) d (0.1)” value was 0.49 μm; the “Particle size distribution (μm, Malvern) d (0.5)” value was found to be 1.91 μm; the “Particle size distribution (μm, Malvern) d (0.9)” value was found to be 5.98 μm. Besides, the “Loss of weight (%, TGA)” value in series [3] (non-irradiated micronised powder) came out at 0.12%. In addition, in series [4] (non-irradiated), the “Purity (%)” value was found to be 99.7% and the “Related substances (%)” value stood at 0.3%.

For `C[C@]12CCC(=O)C=C1CC[C@@H]1[C@@H]2[C@@H](O)C[C@@]2(C)[C@H]1CC[C@]2(O)C(=O)COC(=O)CCC(=O)O` [hydrocortisone sodium succinate], in series [1] (powder corticosteroids sterilised with 60Co), the percentage of degradation was 1.4 %/Mrad.

For the molecule `CCC(=O)OCC(=O)[C@@]1(OC(=O)CC)[C@@H](C)C[C@H]2[C@@H]3CCC4=CC(=O)C=C[C@]4(C)[C@@]3(Cl)[C@@H](O)C[C@@]21C` [BDP, beclomethasone dipropionate], the figures for the stability after gamma-irradiation entry in series [1] (powder) and in series [1] (solution in methanol or propylene glycol) were “stable immediately after irradiation” and “quick degradation”, respectively. The “stability after exposure to gamma-irradiation” value in series [4] (2 to 9 KGy) is recorded as “stable”.

As to `C[C@]12CCC(=O)C=C1CC[C@@H]1[C@@H]2[C@@H](O)C[C@@]2(C)[C@H]1CC[C@]2(O)C(=O)CO` [hydrocortisone], in series [1], the degradation degree entry is recorded as “about 2.4%”.

Take `CCC(=O)OCC(=O)[C@@]1(OC(=O)CC)[C@@H](C)C[C@H]2[C@@H]3CCC4=CC(=O)C=C[C@]4(C)[C@@]3(Cl)[C@@H](O)C[C@@]21C` [Irr. BDP, beclomethasone dipropionate]: in series [2] (gamma-irradiation 2 KGy), the “Particle size distribution (μm, Malvern) d (0.1)” value is listed as 0.48 μm; the “Particle size distribution (μm, Malvern) d (0.5)” value is recorded as 1.81 μm; the “Particle size distribution (μm, Malvern) d (0.9)” value was found to be 5.73 μm. In addition, the “Loss of weight (%, TGA)” value in series [3] (gamma-irradiation 2 KGy) amounted to 0.13%. In series [4] (gamma-irradiation 2 KGy), the “Purity (%)” value came to 99.6% and the “Related substances (%)” value was 0.4%. Moreover, in series [4] (gamma-irradiation 3.17 KGy), the “Purity (%)” value is on record as 99.6% and the “Related substances (%)” value is given as 0.4%. In addition, in series [4] (gamma-irradiation 9.08 KGy), the “Purity (%)” value is listed as 99.3% and the “Related substances (%)” value is recorded as 0.7%.

The record behind these values is patent US6464958B1, “Process for the preparation of suspensions of drug particles for inhalation delivery” (Chiesi Farmaceutici S.p.A., priority 1998, dated 2002).
